Data: publication PMC11864979, “First-in-class ultralong-target-residence-time p38α inhibitors as a mitosis-targeted therapy for colorectal cancer” (Nature Cancer, 2025)
Where two headings read alike, the source gives them in different places.

Experiments:
Assay in all cases: selectivity profiling in a panel of 340 wild-type kinases (Reaction Biology Europe)
Format in all cases: binding
[1] = molecular target: T1, 340 wild-type kinases (Homo sapiens, UniProt O94806)
T1 construct: purchased Reaction Biology Europe
T1 sequence (O94806 1-890): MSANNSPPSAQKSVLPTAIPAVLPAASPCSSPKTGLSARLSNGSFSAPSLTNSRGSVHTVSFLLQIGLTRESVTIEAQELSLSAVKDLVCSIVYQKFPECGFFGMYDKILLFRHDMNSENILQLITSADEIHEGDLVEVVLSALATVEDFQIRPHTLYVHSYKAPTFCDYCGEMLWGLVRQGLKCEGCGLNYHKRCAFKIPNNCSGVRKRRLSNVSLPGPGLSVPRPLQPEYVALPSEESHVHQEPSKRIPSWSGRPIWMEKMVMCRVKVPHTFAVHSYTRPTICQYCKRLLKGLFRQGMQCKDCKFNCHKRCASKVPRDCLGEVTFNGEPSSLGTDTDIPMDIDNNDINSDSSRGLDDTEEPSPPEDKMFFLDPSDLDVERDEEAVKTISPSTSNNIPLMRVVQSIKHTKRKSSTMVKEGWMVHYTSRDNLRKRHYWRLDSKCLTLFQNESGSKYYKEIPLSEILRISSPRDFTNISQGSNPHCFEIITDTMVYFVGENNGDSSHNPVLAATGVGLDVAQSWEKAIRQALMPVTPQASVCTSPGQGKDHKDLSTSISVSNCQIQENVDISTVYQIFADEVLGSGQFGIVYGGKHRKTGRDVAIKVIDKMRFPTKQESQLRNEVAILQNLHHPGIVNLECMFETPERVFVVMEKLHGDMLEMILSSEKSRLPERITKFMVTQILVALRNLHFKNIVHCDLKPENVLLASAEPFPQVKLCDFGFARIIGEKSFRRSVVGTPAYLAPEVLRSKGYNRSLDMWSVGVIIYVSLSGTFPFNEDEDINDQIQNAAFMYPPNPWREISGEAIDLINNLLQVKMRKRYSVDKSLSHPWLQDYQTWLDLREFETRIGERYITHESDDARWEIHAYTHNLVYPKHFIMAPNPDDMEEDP

[2] = molecular target: T2, 340 wild-type kinases (Homo sapiens, UniProt O96013)
T2 construct: purchased Reaction Biology Europe
T2 sequence (O96013 whole entry): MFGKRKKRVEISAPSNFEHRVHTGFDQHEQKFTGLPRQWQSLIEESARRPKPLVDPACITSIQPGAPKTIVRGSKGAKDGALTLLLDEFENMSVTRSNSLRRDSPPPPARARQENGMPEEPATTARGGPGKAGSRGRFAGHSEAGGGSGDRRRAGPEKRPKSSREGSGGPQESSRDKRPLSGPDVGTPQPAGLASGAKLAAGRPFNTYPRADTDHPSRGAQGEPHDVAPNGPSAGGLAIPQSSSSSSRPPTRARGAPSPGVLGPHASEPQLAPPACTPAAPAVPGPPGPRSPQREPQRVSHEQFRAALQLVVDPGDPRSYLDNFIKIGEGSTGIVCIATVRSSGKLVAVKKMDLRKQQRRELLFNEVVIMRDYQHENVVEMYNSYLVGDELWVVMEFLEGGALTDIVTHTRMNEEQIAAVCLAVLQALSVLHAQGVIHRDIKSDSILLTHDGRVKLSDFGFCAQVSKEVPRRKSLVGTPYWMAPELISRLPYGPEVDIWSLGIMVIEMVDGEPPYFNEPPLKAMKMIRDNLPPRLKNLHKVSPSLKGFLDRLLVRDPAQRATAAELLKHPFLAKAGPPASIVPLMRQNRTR

[3] = molecular target: T3, 340 wild-type kinases (Homo sapiens, UniProt P04049, Y340D/Y341D); details: read-out: RAF1 YDYD residual activity
T3 construct: purchased Reaction Biology Europe

[4] = molecular target: T4, 340 wild-type kinases (Homo sapiens, UniProt P08581)
T4 construct: purchased Reaction Biology Europe
T4 sequence (P08581 25-1390): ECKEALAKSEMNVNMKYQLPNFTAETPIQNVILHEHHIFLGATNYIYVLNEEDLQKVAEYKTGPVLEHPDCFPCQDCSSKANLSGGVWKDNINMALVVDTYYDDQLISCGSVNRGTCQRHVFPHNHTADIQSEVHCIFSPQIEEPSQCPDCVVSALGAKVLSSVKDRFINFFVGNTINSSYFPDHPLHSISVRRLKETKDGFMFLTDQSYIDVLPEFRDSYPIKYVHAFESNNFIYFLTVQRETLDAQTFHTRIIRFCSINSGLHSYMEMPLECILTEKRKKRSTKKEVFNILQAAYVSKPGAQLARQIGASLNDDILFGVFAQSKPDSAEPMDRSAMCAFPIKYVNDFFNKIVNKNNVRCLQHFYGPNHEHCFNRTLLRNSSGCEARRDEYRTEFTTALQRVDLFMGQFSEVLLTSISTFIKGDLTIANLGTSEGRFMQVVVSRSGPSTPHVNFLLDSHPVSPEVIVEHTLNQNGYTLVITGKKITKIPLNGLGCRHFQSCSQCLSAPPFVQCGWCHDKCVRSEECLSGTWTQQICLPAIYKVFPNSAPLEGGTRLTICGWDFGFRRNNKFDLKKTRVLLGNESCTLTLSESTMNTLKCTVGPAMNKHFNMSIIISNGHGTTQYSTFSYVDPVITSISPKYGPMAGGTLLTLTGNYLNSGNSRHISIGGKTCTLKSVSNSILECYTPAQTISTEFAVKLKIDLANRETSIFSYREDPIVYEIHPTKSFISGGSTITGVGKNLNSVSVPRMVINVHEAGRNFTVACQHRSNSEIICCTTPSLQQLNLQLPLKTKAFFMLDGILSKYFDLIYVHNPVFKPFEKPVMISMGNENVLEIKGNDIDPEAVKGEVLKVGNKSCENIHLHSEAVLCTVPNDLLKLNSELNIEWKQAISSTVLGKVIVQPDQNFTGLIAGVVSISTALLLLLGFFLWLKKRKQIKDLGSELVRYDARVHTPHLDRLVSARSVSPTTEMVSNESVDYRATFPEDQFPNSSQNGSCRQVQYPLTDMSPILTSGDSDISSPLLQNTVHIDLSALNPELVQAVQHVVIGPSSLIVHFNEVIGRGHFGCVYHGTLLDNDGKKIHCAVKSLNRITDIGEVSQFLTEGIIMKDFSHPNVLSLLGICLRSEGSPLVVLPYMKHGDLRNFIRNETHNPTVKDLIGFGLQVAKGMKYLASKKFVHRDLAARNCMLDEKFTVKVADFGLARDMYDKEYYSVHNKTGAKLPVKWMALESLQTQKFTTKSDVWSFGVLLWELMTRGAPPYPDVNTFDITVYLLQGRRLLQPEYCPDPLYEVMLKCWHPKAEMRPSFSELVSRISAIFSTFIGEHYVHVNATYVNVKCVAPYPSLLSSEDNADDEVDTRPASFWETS

[5] = molecular target: T5, 340 wild-type kinases (Homo sapiens, UniProt P36894)
T5 construct: purchased Reaction Biology Europe
T5 sequence (P36894 24-532): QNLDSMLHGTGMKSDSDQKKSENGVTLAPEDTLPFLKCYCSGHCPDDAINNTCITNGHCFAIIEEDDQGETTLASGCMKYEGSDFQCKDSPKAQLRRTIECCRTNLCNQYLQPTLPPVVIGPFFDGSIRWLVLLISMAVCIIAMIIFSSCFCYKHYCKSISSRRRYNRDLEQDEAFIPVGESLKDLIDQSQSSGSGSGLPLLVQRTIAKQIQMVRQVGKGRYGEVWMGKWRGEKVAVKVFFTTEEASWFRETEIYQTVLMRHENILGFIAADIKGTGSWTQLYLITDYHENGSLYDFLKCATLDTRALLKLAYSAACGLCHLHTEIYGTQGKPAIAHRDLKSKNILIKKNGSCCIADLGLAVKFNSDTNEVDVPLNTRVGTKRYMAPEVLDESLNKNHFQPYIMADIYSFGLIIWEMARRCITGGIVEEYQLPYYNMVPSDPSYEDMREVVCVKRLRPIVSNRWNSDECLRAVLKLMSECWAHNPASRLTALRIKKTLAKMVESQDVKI

[6] = molecular target: T6, 340 wild-type kinases (Homo sapiens, UniProt P53350)
T6 construct: purchased Reaction Biology Europe
T6 sequence (P53350 whole entry): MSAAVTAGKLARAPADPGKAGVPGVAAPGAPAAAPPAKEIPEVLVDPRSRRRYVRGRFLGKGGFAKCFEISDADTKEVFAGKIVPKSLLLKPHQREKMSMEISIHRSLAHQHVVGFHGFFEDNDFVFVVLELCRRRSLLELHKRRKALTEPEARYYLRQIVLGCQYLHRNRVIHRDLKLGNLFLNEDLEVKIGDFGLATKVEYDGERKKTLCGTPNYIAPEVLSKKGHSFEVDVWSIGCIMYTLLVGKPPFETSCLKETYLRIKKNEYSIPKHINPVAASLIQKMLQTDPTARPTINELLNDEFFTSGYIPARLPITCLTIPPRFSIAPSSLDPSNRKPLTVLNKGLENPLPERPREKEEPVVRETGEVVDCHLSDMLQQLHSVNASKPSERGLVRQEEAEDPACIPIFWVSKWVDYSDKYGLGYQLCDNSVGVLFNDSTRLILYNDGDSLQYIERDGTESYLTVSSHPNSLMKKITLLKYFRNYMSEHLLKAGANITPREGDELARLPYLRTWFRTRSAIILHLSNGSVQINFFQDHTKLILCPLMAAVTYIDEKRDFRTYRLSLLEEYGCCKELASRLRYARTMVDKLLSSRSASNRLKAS

[7] = molecular target: T7, 340 wild-type kinases (Homo sapiens, UniProt Q13233)
T7 construct: purchased Reaction Biology Europe
T7 sequence (Q13233 whole entry): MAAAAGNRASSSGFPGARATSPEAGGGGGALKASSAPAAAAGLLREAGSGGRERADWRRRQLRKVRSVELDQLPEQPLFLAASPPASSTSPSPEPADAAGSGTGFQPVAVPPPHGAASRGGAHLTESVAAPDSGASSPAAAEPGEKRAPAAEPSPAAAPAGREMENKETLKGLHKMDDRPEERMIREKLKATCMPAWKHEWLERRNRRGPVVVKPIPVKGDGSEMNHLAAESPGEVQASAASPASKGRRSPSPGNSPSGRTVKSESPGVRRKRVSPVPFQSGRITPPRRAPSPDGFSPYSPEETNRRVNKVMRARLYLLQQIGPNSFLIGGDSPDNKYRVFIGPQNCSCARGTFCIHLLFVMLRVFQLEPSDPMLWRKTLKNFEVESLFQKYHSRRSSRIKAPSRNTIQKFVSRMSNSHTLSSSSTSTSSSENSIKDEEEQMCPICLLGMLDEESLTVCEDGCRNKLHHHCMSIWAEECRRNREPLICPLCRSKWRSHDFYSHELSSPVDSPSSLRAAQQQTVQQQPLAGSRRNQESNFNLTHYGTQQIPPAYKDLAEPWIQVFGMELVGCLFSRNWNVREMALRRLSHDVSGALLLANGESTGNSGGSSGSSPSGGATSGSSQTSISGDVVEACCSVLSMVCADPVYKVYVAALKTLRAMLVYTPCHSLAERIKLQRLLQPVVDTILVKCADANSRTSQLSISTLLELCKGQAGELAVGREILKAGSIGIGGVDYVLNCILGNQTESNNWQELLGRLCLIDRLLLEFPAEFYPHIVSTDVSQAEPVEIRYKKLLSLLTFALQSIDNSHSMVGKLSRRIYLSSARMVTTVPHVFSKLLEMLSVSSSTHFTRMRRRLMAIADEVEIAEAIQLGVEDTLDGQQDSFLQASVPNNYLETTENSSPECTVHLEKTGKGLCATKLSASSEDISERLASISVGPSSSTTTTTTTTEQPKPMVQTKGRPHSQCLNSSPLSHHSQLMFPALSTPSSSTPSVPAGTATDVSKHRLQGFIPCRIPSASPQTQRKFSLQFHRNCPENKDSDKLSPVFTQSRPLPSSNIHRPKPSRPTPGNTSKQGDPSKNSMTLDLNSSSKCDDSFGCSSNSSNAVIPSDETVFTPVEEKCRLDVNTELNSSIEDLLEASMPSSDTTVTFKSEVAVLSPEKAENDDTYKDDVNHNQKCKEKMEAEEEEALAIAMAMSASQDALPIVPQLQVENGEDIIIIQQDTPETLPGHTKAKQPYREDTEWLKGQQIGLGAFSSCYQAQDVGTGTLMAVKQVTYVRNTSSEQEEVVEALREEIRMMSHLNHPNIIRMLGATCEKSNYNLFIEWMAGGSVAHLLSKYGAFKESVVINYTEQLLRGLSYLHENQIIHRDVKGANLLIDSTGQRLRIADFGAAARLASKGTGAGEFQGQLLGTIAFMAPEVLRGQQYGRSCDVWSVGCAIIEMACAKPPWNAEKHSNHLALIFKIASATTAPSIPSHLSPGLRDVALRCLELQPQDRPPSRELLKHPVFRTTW

[8] = molecular target: T8, 340 wild-type kinases (Homo sapiens, UniProt Q8IWQ3)
T8 construct: purchased Reaction Biology Europe
T8 sequence (Q8IWQ3 1-736): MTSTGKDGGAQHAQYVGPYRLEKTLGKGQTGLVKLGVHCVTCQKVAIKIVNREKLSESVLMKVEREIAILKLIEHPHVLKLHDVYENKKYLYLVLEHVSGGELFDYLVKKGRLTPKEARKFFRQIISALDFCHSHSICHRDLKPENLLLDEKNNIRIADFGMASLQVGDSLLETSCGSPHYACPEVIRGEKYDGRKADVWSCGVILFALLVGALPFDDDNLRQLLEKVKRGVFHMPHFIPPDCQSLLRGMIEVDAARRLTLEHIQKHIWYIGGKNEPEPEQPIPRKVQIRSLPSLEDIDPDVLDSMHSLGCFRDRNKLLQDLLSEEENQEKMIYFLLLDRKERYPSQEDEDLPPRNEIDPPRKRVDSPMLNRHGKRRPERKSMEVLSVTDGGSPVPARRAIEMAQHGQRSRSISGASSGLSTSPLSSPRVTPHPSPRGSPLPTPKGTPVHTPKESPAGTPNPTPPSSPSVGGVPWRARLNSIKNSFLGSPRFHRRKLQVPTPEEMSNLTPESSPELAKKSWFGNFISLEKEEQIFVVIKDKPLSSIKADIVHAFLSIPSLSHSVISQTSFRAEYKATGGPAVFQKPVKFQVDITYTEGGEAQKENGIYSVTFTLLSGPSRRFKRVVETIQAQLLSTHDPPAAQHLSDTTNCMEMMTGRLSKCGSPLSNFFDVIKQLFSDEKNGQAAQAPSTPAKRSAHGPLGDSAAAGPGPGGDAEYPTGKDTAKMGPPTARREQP

## CNC(=O)c1ccc2c(c1)C(=O)c1ccc(Nc3ccc(F)c(NC(=O)C4CC4)c3)cc1CC2 [Compound 2015]
[1]; 0.2 µM 2015, read-out: PKCnu residual activity
  remaining activity at 0.2 µM: 88.9%
[1]; 1 µM 2015, read-out: PKCnu residual activity
  remaining activity at 1 µM: 96.9%
[1]; PKCnu, 0.2 µM, read-out: residual activity
  remaining activity at 0.2 µM: 88.9%
[1]; PKCnu, 1 µM, read-out: residual activity
  remaining activity at 1 µM: 96.9%
[2]; 0.2 µM 2015, read-out: PAK4 residual activity
  remaining activity at 0.2 µM: 92.5%
[2]; 1 µM 2015, read-out: PAK4 residual activity
  remaining activity at 1 µM: 85.8%
[2]; PAK4, 0.2 µM, read-out: residual activity
  remaining activity at 0.2 µM: 92.5%
[2]; PAK4, 1 µM, read-out: residual activity
  remaining activity at 1 µM: 85.8%
[3]; 0.2 µM 2015
  remaining activity at 0.2 µM: 80.3%
[3]; 1 µM 2015
  remaining activity at 1 µM: 88.8%
[4]; 0.2 µM 2015, read-out: MET residual activity
  remaining activity at 0.2 µM: 96.7%
[4]; 1 µM 2015, read-out: MET residual activity
  remaining activity at 1 µM: 93.5%
[4]; MET, 0.2 µM, read-out: residual activity
  remaining activity at 0.2 µM: 96.7%
[4]; MET, 1 µM, read-out: residual activity
  remaining activity at 1 µM: 93.5%
[5]; 0.2 µM 2015, read-out: BMPR1A residual activity
  remaining activity at 0.2 µM: 95.6%
[5]; 1 µM 2015, read-out: BMPR1A residual activity
  remaining activity at 1 µM: 98.5%
[5]; BMPR1A, 0.2 µM, read-out: residual activity
  remaining activity at 0.2 µM: 95.6%
[5]; BMPR1A, 1 µM, read-out: residual activity
  remaining activity at 1 µM: 98.5%
[6]; 0.2 µM 2015, read-out: PLK1 residual activity
  remaining activity at 0.2 µM: 94.2%
[6]; 1 µM 2015, read-out: PLK1 residual activity
  remaining activity at 1 µM: 96.3%
[6]; PLK1, 0.2 µM, read-out: residual activity
  remaining activity at 0.2 µM: 94.2%
[6]; PLK1, 1 µM, read-out: residual activity
  remaining activity at 1 µM: 96.3%
[7]; 0.2 µM 2015, read-out: MAP3K1 residual activity
  remaining activity at 0.2 µM: 104%
[7]; 1 µM 2015, read-out: MAP3K1 residual activity
  remaining activity at 1 µM: 102%
[7]; MAP3K1, 0.2 µM, read-out: residual activity
  remaining activity at 0.2 µM: 104%
[7]; MAP3K1, 1 µM, read-out: residual activity
  remaining activity at 1 µM: 102%
[8]; 0.2 µM 2015, read-out: BRSK2 residual activity
  remaining activity at 0.2 µM: 103%
[8]; 1 µM 2015, read-out: BRSK2 residual activity
  remaining activity at 1 µM: 101%
[8]; BRSK2, 0.2 µM, read-out: residual activity
  remaining activity at 0.2 µM: 103%
[8]; BRSK2, 1 µM, read-out: residual activity
  remaining activity at 1 µM: 101%
